Test results published in EP3820574B1, “3-(5-AMINO-1-OXOISOINDOLIN-2-YL)PIPERIDINE-2,6-DIONE DERIVATIVES AND THEIR USE IN THE TREATMENT OF IKAROS FAMILY ZINC FINGER 2 (IKZF2)-DEPENDENT DISEASES” (Novartis AG, priority 2018, dated 2020).

Assays:
[1] = biological target: IKZF2 (Homo sapiens, UniProt Q96SW2+Q9UKS7); experiment: Prolabel quantification of IKZF2 protein levels in 293GT cells; conditions: for inhibition at 10 µM: read-out: IKZF2 % protein reduction at 10 µM, 24 h; for DC50: read-out: IKZF2 EC50, Helios (IKZF2) degradation, prolabel-tagged fusion protein in 293GT cells, highest concentration 50 µM
Method: (§1) The Prolabel system from DiscoverX was used to develop high-throughput and quantitative assays to measure changes in IKZF1, IKZF2, and GSPT1 protein levels in response to compounds. […] The complementary fragment of beta-galactosidase (from DiscoverX), is added to the prolabel tag to form an active beta galactosidase enzyme whose activity can be precisely measured. In this way, the levels of a fusion protein with the prolabel tag can be quantified in cell lysates.
(§2) Lentiviral vectors, based on the Invitrogen pLenti6.2/V5 DEST backbone, were constructed that placed the prolabel tag upstream of IKZF1, IKZF2, or GSPT1 and expressed the fusion protein from a CMV promoter.
(§3) To ensure moderate and consistent expression of the prolabel fusion proteins across all cells in the population, stable cell lines were constructed from cells expressing a single copy of the construct. Lentivirus packaged with the constructs was made using the Virapower kit from Invitrogen.
(§4) The levels of prolabel tagged fusion proteins in compound treated cell lines were measured as follows: • Day 1, Cells were diluted to 1.0 x 10^6 cells/ml in normal growth medium. 17.5 µL of cells were plated in each well of a solid white 384 well plate. Plates were incubated overnight in a 37 °C tissue culture incubator. • Day 2, Serial dilutions of compounds were made in 384 well plates from 10 mM stocks. 15 µL of DMSO was added to each well of a 384 well plate. In the first column 15µL of stock compound was added. The solution was mixed and 15 µL was transferred to the next column. This was repeated until 20 two-fold dilutions were prepared. 2.5 µL of diluted compounds were transferred into 60 µL of cell culture medium in another 384 well plate, and mixed well. 2.5 µL of this mixture was added to the plated cells. The final DMSO concentration was 0.5% and the highest concentration of compound was 50 µM. Plates were incubated overnight (e.g., about 14 h, 18 h, or 24 h) in a 37 °C tissue culture incubator. • Day 3, Plates were removed from the incubator and allowed to equilibrate at rt for 30 minutes. Prolabel substrate (DiscoverX PathHunter Prolabel Detection Kit, User manual: 93-0180) was added as described by the manufacturers protocols. Plates were incubated at rt for three hours and luminescence was read using an Envision reader (Perkin Elmer) Data was analyzed and visualized using the Spotfire software package.

[2] = biological target: IKZF1 (Homo sapiens, UniProt Q13422+Q96SW2); experiment: Prolabel quantification of IKZF1 protein levels in 293GT cells; conditions: read-out: IKZF1 EC50; Ikaros (IKZF1) degradation, prolabel-tagged fusion protein in 293GT cells; highest concentration 50 µM
Method: as §1, §2, §3, §4

[3] = biological target: GSPT1 (Homo sapiens, UniProt P15170+Q96SW2); conditions: read-out: GSPT1 EC50; GSPT1 degradation, prolabel-tagged fusion protein in 293GT cells; highest concentration 50 µM
Sequence of GSPT1 (P15170 whole entry, the tested form may be a part): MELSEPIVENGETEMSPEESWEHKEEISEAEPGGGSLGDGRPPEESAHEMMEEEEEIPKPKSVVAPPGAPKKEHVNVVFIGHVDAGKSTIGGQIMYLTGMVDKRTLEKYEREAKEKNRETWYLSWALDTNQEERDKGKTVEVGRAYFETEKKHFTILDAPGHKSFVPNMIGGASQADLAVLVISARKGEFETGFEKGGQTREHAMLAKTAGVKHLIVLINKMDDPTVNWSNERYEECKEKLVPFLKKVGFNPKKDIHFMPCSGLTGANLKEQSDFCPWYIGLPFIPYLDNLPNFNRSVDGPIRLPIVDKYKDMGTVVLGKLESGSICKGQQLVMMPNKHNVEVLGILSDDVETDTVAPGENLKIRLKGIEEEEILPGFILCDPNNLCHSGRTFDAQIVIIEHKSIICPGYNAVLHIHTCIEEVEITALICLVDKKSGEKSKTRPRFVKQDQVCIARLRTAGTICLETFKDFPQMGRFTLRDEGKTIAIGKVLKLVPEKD
Sequence of GSPT1 (Q96SW2 whole entry, the tested form may be a part): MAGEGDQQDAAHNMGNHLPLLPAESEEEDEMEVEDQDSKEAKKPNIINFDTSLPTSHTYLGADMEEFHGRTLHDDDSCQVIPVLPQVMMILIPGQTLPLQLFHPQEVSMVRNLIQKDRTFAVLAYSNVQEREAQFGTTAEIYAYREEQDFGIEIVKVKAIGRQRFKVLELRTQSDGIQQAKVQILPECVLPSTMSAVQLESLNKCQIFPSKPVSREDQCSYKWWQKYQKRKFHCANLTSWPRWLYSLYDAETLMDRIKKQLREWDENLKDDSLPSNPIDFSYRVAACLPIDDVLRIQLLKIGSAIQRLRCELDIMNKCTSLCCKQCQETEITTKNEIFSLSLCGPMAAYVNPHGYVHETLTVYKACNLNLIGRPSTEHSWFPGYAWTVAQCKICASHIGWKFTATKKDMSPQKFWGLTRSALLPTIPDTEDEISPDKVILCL
Sequence of GSPT1 (Q16531 whole entry partner, the tested form may be a part): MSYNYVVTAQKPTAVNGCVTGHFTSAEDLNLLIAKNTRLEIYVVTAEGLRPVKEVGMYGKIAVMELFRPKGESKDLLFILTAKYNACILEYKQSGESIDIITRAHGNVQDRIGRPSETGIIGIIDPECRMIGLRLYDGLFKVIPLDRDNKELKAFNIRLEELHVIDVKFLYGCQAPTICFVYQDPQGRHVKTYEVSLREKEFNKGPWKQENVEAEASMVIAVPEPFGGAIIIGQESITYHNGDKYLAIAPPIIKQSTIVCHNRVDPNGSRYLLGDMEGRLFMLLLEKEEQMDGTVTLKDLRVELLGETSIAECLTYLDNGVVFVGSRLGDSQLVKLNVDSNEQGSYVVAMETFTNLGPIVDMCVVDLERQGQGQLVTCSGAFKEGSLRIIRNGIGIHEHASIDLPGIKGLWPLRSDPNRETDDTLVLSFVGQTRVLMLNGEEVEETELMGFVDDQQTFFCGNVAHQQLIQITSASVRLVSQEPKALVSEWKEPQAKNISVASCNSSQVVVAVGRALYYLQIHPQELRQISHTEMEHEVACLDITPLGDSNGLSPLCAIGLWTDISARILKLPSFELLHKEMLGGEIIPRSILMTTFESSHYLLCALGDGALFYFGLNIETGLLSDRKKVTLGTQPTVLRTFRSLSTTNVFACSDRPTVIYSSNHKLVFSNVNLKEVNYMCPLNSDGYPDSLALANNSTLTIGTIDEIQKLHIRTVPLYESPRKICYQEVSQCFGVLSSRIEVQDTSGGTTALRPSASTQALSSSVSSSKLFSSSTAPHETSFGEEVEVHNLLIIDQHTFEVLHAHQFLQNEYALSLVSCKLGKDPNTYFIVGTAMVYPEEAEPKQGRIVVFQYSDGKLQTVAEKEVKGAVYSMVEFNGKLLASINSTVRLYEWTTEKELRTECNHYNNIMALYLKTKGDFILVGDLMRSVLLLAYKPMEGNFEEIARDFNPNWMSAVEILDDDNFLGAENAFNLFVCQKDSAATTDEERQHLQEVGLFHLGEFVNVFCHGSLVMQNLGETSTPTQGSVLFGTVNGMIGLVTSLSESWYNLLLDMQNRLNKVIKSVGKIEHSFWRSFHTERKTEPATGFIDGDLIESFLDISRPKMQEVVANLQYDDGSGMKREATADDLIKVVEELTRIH
Method: as §1, §2, §3, §4

Sequence of IKZF1 (Q13422 whole entry, the tested form may be a part): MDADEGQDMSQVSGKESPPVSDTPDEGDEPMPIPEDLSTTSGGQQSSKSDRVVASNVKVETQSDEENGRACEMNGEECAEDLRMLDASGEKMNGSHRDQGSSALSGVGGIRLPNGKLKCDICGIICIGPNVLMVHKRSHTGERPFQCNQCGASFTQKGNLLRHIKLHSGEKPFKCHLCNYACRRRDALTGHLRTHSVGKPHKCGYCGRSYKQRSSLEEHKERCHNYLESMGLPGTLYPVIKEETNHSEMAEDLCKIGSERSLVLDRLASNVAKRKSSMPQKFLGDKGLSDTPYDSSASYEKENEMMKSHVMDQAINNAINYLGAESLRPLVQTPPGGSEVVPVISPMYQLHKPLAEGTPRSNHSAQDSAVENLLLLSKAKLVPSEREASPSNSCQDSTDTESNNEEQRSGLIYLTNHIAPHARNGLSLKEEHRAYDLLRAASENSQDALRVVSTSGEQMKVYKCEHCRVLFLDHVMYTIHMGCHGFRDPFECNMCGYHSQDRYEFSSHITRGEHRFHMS
Sequence of IKZF1 (Q96SW2 whole entry, the tested form may be a part): as the sequence (Q96SW2 whole entry, the tested form may be a part) above
Sequence of IKZF1 (Q16531 whole entry partner, the tested form may be a part): as the sequence (Q16531 whole entry partner, the tested form may be a part) above
Sequence of IKZF2 (Q9UKS7 whole entry, the tested form may be a part): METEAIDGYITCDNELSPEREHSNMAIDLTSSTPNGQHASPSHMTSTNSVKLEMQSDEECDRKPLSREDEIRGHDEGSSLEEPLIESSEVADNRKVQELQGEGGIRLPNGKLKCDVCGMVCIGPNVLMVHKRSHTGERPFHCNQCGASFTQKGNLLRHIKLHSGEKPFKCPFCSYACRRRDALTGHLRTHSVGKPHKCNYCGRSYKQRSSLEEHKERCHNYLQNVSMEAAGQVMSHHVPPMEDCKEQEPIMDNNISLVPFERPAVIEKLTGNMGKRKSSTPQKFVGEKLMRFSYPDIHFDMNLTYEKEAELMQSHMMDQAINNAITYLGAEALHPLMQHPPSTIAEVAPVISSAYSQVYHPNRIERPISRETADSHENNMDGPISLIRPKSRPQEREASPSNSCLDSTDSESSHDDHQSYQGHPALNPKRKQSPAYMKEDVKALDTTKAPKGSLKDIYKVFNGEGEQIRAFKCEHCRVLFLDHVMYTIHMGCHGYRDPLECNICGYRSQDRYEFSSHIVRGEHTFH
Sequence of IKZF2 (Q96SW2 whole entry, the tested form may be a part): as the sequence (Q96SW2 whole entry, the tested form may be a part) above
Sequence of IKZF2 (Q16531 whole entry partner, the tested form may be a part): as the sequence (Q16531 whole entry partner, the tested form may be a part) above

CN(c1ccc2c(c1)C(=O)N(C1CCC(=O)NC1=O)C2=O)[C@H]1CCCC[C@@H]1NCC(=O)O (stereo partly drawn) [Compound I-148, ((1S,2S)-2-((2-(2,6-dioxopiperidin-3-yl)-1,3-dioxoisoindolin-5-yl)(methyl)amino)cyclohexyl)glycine]
inhibition at 10 µM ([1]; 24 h): 40%
DC50 [1]: 11300 nM
DC50 [2]: > 30000 nM

CN(c1ccc2c(c1)C(=O)N(C1CCC(=O)NC1=O)C2=O)[C@H]1CCCC[C@@H]1NCC1(C(F)(F)F)CC1 (stereo partly drawn) [Compound I-138, 2-(2,6-dioxopiperidin-3-yl)-5-(methyl((1S,2S)-2-(((1-(trifluoromethyl)cyclopropyl)methyl)amino)cyclohexyl)amino)isoindoline-1,3-dione]
inhibition at 10 µM ([1]; 24 h): 30%
DC50 [2]: > 30000 nM

CN(c1ccc2c(c1)C(=O)N(C1CCC(=O)NC1=O)C2=O)[C@H]1CCCC[C@@H]1NCc1cccnc1 (stereo partly drawn) [Compound I-143, 2-(2,6-dioxopiperidin-3-yl)-5-(methyl((1S,2S)-2-((pyridin-3-ylmethyl)amino)cyclohexyl)amino)isoindoline-1,3-dione]
inhibition at 10 µM ([1]; 24 h): 40%
DC50 [1]: 23100 nM
DC50 [2]: > 30000 nM

CC(C)CN[C@H]1CCCC[C@@H]1Nc1ccc2c(c1)CN(C1CCC(=O)NC1=O)C2=O (stereo partly drawn) [Compound I-15, 3-(5-(((1S,2S)-2-(isobutylamino)cyclohexyl)amino)-1-oxoisoindolin-2-yl)piperidine-2,6-dione]
inhibition at 10 µM ([1]; 24 h): 60%
DC50 [1]: 94 nM
DC50 [2]: > 30000 nM

O=C1CCC(N2Cc3cc(N[C@H]4CCC[C@@H]4N4CCCCC4)ccc3C2=O)C(=O)N1 (stereo partly drawn) [Compound I-14, 3-(1-oxo-5-(((1S,2S)-2-(piperidin-1-yl)cyclopentyl)amino)isoindolin-2-yl)piperidine-2,6-dione]
inhibition at 10 µM ([1]; 24 h): 40%
DC50 [1]: 730 nM
DC50 [2]: > 30000 nM

CN[C@H]1CCC[C@@H]1N(C)c1ccc2c(c1)C(=O)N(C1CCC(=O)NC1=O)C2=O (stereo partly drawn) [Compound I-128, 2-(2,6-dioxopiperidin-3-yl)-5-(methyl((1S,2S)-2-(methylamino)cyclopentyl)amino) isoindoline-1,3-dione]
inhibition at 10 µM ([1]; 24 h): 30%
DC50 [1]: > 30000 nM
DC50 [2]: > 30000 nM

CN(c1ccc2c(c1)C(=O)N(C1CCC(=O)NC1=O)C2=O)[C@H]1CCCC[C@@H]1N (stereo partly drawn) [Compound I-99, 5-(((1S,2S)-2-aminocyclohexyl)(methyl)amino)-2-(2,6-dioxopiperidin-3-yl)isoindoline-1,3-dione]
inhibition at 10 µM ([1]; 24 h): 70%
DC50 [1]: 150 nM
DC50 [2]: 5200 nM
DC50 [3]: > 50000 nM

CN(c1ccc2c(c1)C(=O)N(C1CCC(=O)NC1=O)C2=O)[C@H]1CCCC[C@@H]1NCc1ccccc1 (stereo partly drawn) [Compound I-133, 5-(((1S,2S)-2-(benzylamino)cyclohexyl)(methyl)amino)-2-(2,6-dioxopiperidin-3-yl)isoindoline-1,3-dione]
inhibition at 10 µM ([1]; 24 h): 75%
DC50 [1]: 450 nM
DC50 [2]: > 30000 nM

O=C1CCC(N2Cc3cc(N[C@H]4CCCC[C@@H]4NCC4CCCCC4)ccc3C2=O)C(=O)N1 (stereo partly drawn) [Compound I-12, 3-(5-(((1S,2S)-2-((cyclohexylmethyl)amino)cyclohexyl)amino)-1-oxoisoindolin-2-yl)piperidine-2,6-dione]
inhibition at 10 µM ([1]; 24 h): 65%
DC50 [1]: 36 nM
DC50 [2]: > 30000 nM

CN[C@H]1CCCC[C@@H]1N(C)c1ccc2c(c1F)CN(C1CCC(=O)NC1=O)C2=O (stereo partly drawn) [Compound I-163, 3-(4-fluoro-5-(methyl((1S,2S)-2-(methylamino)cyclohexyl)amino)-1-oxoisoindolin-2-yl)piperidine-2,6-dione]
inhibition at 10 µM ([1]; 24 h): 80%
DC50 [1]: 66 nM
DC50 [2]: 570 nM

CCN[C@H]1CCCC[C@@H]1N(C)c1ccc2c(c1)C(=O)N(C1CCC(=O)NC1=O)C2=O (stereo partly drawn) [Compound I-104, 2-(2,6-dioxopiperidin-3-yl)-5-(((1S,2S)-2-(ethylamino)cyclohexyl)(methyl)amino)isoindoline-1,3-dione]
inhibition at 10 µM ([1]; 24 h): 80%
DC50 [1]: 49 nM
DC50 [2]: 51 nM
DC50 [3]: > 50000 nM

CCN[C@H]1CCCC[C@@H]1Nc1ccc2c(c1)CN(C1CCC(=O)NC1=O)C2=O (stereo partly drawn) [Compound I-40, 3-(5-(((1S,2S)-2-(ethylamino)cyclohexyl)amino)-1-oxoisoindolin-2-yl)piperidine-2,6-dione]
inhibition at 10 µM ([1]; 24 h): 45%
DC50 [1]: 1670 nM
DC50 [2]: > 30000 nM

CN(C)[C@H]1CCCC[C@@H]1Nc1ccc2c(c1)C(=O)N(C1CCC(=O)NC1=O)C2=O (stereo partly drawn) [Compound I-153, 5-(((1S,2S)-2-(dimethylamino)cyclohexyl)amino)-2-(2,6-dioxopiperidin-3-yl)isoindoline-1,3-dione]
inhibition at 10 µM ([1]; 24 h): 50%
DC50 [1]: 410 nM
DC50 [2]: > 30000 nM
DC50 [3]: > 50000 nM

CN[C@@H]1CCCC[C@H]1N(C)c1ccc2c(c1)CN(C1CCC(=O)NC1=O)C2=O (relative stereo) [Compound I-9, trans-3-(5-(methyl(-2-(methylamino)cyclohexyl)amino)-1-oxoisoindolin-2-yl)piperidine-2,6-dione]
IKZF2 % protein reduction at 10 µM, 24 h ([1]; 10 µM, 24 h, 293GT cells): 65%
DC50 [1]: 113 nM
DC50 [2]: > 50000 nM
DC50 [3]: > 50000 nM

CN(C)[C@H]1CCCC[C@@H]1N(C)c1ccc2c(c1)C(=O)N(C1CCC(=O)NC1=O)C2=O (stereo partly drawn) [Compound I-96, 5-(((1S,2S)-2-(dimethylamino)cyclohexyl)(methyl)amino)-2-(2,6-dioxopiperidin-3-yl)isoindoline-1,3-dione]
inhibition at 10 µM ([1]; 24 h): 50%
DC50 [1]: 1570 nM
DC50 [2]: 2370 nM
DC50 [3]: > 50000 nM

CN[C@H]1CCCCC[C@@H]1N(C)c1ccc2c(c1)C(=O)N(C1CCC(=O)NC1=O)C2=O (stereo partly drawn) [Compound I-109, 2-(2,6-dioxopiperidin-3-yl)-5-(methyl((1S,2S)-2-(methylamino)cycloheptyl)amino)isoindoline-1,3-dione]
inhibition at 10 µM ([1]; 24 h): 70%
DC50 [1]: 230 nM
DC50 [2]: > 30000 nM
DC50 [3]: > 50000 nM

CN[C@H]1CCCC[C@@H]1Nc1ccc2c(c1)CN(C1CCC(=O)NC1=O)C2=O (stereo partly drawn) [Compound I-10, 3-(5-(((1S,2S)-2-(methylamino)cyclohexyl)amino)-1-oxoisoindolin-2-yl)piperidine-2,6-dione]
inhibition at 10 µM ([1]; 24 h): 50%
DC50 [1]: 990 nM
DC50 [2]: > 30000 nM
DC50 [3]: > 50000 nM

O=C1CCC(N2Cc3cc(N[C@H]4CCCC[C@@H]4OCc4ccccc4)ccc3C2=O)C(=O)N1 (stereo partly drawn) [Compound I-4, 3-(5-(((1S,2S)-2-(benzyloxy)cyclohexyl)amino)-1-oxoisoindolin-2-yl)piperidine-2,6-dione]
DC50 [3]: > 30000 nM

CN[C@H]1CCCC[C@@H]1N(C)c1ccc2c(c1)CN(C1CCC(=O)NC1=O)C2=O (stereo partly drawn) [Compound I-8, 3-(5-(methyl((1S,2S)-2-(methylamino)cyclohexyl)amino)-1-oxoisoindolin-2-yl)piperidine-2,6-dione]
inhibition at 10 µM ([1]; 24 h): 65%
DC50 [1]: 103 nM
DC50 [2]: > 50000 nM
DC50 [3]: > 50000 nM

CC(C)N[C@H]1CCCC[C@@H]1Nc1ccc2c(c1)CN(C1CCC(=O)NC1=O)C2=O (stereo partly drawn) [Compound I-45, 3-(5-(((1S,2S)-2-(isopropylamino)cyclohexyl)amino)-1-oxoisoindolin-2-yl)piperidine-2,6-dione]
inhibition at 10 µM ([1]; 24 h): 70%
DC50 [1]: 100 nM
DC50 [2]: > 30000 nM
DC50 [3]: > 50000 nM

O=C1CCC(N2Cc3cc(N[C@H]4CCCC[C@@H]4NCc4ccccc4)ccc3C2=O)C(=O)N1 (stereo partly drawn) [Compound I-3, 3-(5-(((1S,2S)-2-(benzylamino)cyclohexyl)amino)-1-oxoisoindolin-2-yl)piperidine-2,6-dione]
inhibition at 10 µM ([1]; 24 h): 65%
DC50 [1]: 29 nM
DC50 [2]: > 30000 nM
DC50 [3]: > 30000 nM

O=C1CCC(N2Cc3cc(N[C@H]4CCCC[C@@H]4O)ccc3C2=O)C(=O)N1 (stereo partly drawn) [Compound I-1, 3-(5-(((1S,2S)-2-hydroxycyclohexyl)amino)-1-oxoisoindolin-2-yl)piperidine-2,6-dione]
inhibition at 10 µM ([1]; 24 h): 20%
DC50 [2]: > 30000 nM
DC50 [3]: > 30000 nM

CN[C@@H]1CCCC[C@H]1N(C)c1ccc2c(c1)CN(C1CCC(=O)NC1=O)C2=O (stereo partly drawn) [Compound I-2, 3-(5-(methyl((1R,2R)-2-(methylamino)cyclohexyl)amino)-1-oxoisoindolin-2-yl)piperidine-2,6-dione]
inhibition at 10 µM ([1]; 24 h): 0%
DC50 [1]: > 30000 nM
DC50 [2]: > 30000 nM
DC50 [3]: > 30000 nM

CCN[C@H]1CCCC[C@@H]1N(CC)c1ccc2c(c1)CN(C1CCC(=O)NC1=O)C2=O (stereo partly drawn) [Compound I-55, 3-(5-(ethyl((1S,2S)-2-(ethylamino)cyclohexyl)amino)-1-oxoisoindolin-2-yl)piperidine-2,6-dione]
inhibition at 10 µM ([1]; 24 h): 10%
DC50 [2]: > 30000 nM

CN(Cc1ccccc1)[C@H]1CCCC[C@@H]1N(C)c1ccc2c(c1)CN(C1CCC(=O)NC1=O)C2=O (stereo partly drawn) [Compound I-6, 3-(5-(((1S,2S)-2-(benzyl(methyl)amino)cyclohexyl)(methyl)amino)-1-oxoisoindolin-2-yl)piperidine-2,6-dione]
inhibition at 10 µM ([1]; 24 h): 65%
DC50 [1]: 43 nM
DC50 [2]: > 50000 nM

CN[C@H]1CCCC[C@@H]1N(C)c1ccc2c(c1)C(=O)N(C1CCC(=O)NC1=O)C2=O (stereo partly drawn) [Compound I-114, 2-(2,6-dioxopiperidin-3-yl)-5-(methyl((1S,2S)-2-(methylamino)cyclohexyl)amino)isoindoline-1,3-dione]
inhibition at 10 µM ([1]; 24 h): 70%
DC50 [1]: 24 nM
DC50 [2]: 290 nM
DC50 [3]: > 50000 nM

N[C@H]1CCCC[C@@H]1Nc1ccc2c(c1)CN(C1CCC(=O)NC1=O)C2=O (stereo partly drawn) [Compound I-7, 3-(5-(((1S,2S)-2-aminocyclohexyl)amino)-1-oxoisoindolin-2-yl)piperidine-2,6-dione]
inhibition at 10 µM ([1]; 24 h): 30%
DC50 [1]: 183 nM
DC50 [2]: > 50000 nM
